Patent US20250339462A1, “CANCER TREATMENT USING ULTRA-HIGH CONCENTRATION GASEOUS NITRIC OXIDE AND A CHECKPOINT INHIBITOR” (Beyond Air, Inc., priority 2022, published 2025)

How the values were obtained:
[1] = system: 4T1 tumor-bearing mice; experiment: 4T1 breast cancer model, UNO/Anti-PD-1 Single Dose Study; type: in vivo, mouse; details: single-dose of UNO alone 50,000 ppm 10 min (FIG. 12A)
Description: Preparation of 4T1 cells: Cancer cell suspension, in Hanks' Balanced Salt Solution (HBSS) (Biological Industries, Israel), at a concentration of 5.0×10^6 cells/ml was freshly prepared on the day of the cancer model induction. Cells were grown to a 70-80% confluency and harvested using trypsin. The cells were centrifuged at 1,200 revolutions per minute (rpm)—241 G for 8 minutes, then the pellet was re-suspended in 1 ml of HBSS. The cells were counted using an automated cell counter and a suspension with a concentration of 5.0×10^6 cells/ml was prepared. Cell viability must be above 90% before cell inoculation to the mice, otherwise new cells will need to be prepared. […]
UNO and N2 treatment—On the day of treatment, mice were anesthetized by an intraperitoneal (i.p.) injection of 100 mg/kg of ketamine and 10 mg/kg of xylazine hydrochloride solution. […] After treatment, all mice were warmed and closely monitored until complete recovery was observed. […]
Anti-mPD-1 dosing started one day after UNO treatment. […] The primary tumor volume was assessed using a digital caliper using a standard formula. In addition, mice survival was evaluated. Mice were routinely weighed and monitored for health conditions using mouse distress scoring. Mice reaching a tumor volume of ≥1500 mm3 and/or a score of 12 were humanely euthanized, and the time of death was recorded.

[2] = system: AH-1+CD8+ T-cells (tumor antigen-specific CD8+ T-cells); experiment: Flow cytometry for tumor antigen-specific CD8+ T-cells in blood of CT26 tumor-bearing mice; type: in vivo, mouse; details: day 7 after UNO treatment
Description: Preparation of cancer cells for injection—Mouse colon carcinoma CT26.WT cells (ATCC, Cat no. CRL-2638) suspended in Hanks' Balanced Salt Solution (HBSS) (Biological Industries, Israel), at a concentration of 5.0×10^6 cells/ml, were freshly prepared on the day of cancer model induction. Cells were grown to 70% confluency and were harvested using trypsin (Biological Industries, Israel), and counted using a cell counter device. The cells were then centrifuged at 1,200 rpm (241×g) for 8 minutes, and the pellet was re-suspended in ice cold HBSS at 5.0×10^6 in 1 ml (5.0×10^5 cells in 100 μl solution). Cell viability was >90% as determined by trypan blue staining prior to inoculation to mice. At the point of inoculation, cells were at passage 8 at most. […]
UNO treatment—On the day of treatment, mice were anesthetized by an intra-peritoneal (i.p.) injection of 100 mg/kg ketamine and 10 mg/kg of xylazine hydrochloride solution. […] After treatment, all mice were warmed and closely monitored until complete recovery was observed. […]
Flow cytometry for tumor antigen-specific CD8+ T-cells—On day 7 after the UNO treatment, 100 μl of peripheral blood was collected by submandibular bleeding from each mouse into tubes containing 0.5M EDTA PH 8.0. […] Data was analyzed using the FlowJo software.

With [N]=O [UNO, nitric oxide] the “Primary tumors smaller compared to anti-mPD-1 alone” value [1] was 13.2%, the “Systemic levels of AH-1+CD8+ T-cells vs untreated or naive mice” value [2] was “higher” and the “AH-1+CD8+ T-cells in the blood” value ([2]; UNO 100,000 ppm 5 min, anti-mCTLA-4 5 mg/kg i.p. twice) was “detected in the blood of all mice”.
